How the values were obtained:
[1] = molecular target: T1, phosphorylated EGFR (Tyr 1068) (Homo sapiens, UniProt P00533, L858R/T790M); experiment: Western blot of phosphorylated EGFR and total EGFR in H1975 cells; format: cell-based; conditions: 20~30 μM for 24 hours
T1 construct: endogenous in cells; host or cells: H1975 (ATCC CRL-5908)
Description: EGFR binding cognate ligands may lead to autophosphorylation of receptor tyrosine kinase and subsequent activation of signal transduction pathways of cell survival. Besides, aberrant tyrosine kinase activation increases proliferation and drug resistance of malignant cells. Please refer to FIG. 3. H1975 cells were treated with 0˜30 μM of SP101 for 24 hours. The total protein extracts were prepared for Western blot analyses using specific antibodies, including rabbit anti-p-EGFR (Tyr1068), rabbit anti-EGFR and mouse anti-actin. Representative immunoblotting data were shown from one of three separate experiments with similar findings. Actin was an internal control protein.

[2] = system: H1975 cells with EGFR (T790M) mutation; experiment: MTT cell viability assay in H1975 cells; format: cell-based, human; conditions: 0~40 μM for 24 hours, re-cultured 2 days, compared with Gefitinib
Source text: (§1) A549 (ATCC number: CCL-185) was a non-small cell lung carcinoma cell line which expressed wild type EGFR and with K-Ras mutation (G12S). H1975 (ATCC number: CRL-5908) was a non-small cell lung carcinoma cell line which expressed EGFR L858R/T790M mutation. Oct4 and Nanog overexpression in A549-ON presented the properties of cancer stem-like cells, as well as epithelial-mesenchymal transdifferentiation. PLC26 was lung cancer cells that separated from pleural effusion of a clinical lung cancer patient (IRB number: 103-011-E). A549-ON cells were cultured in DMEM medium. A549 and H1975 cells were maintained in RPMI-1640 medium. PLC26 cells were maintained in LHC-9 medium. DMEM and RPMI medium were supplemented with 10% fetal bovine serum (FBS), 100 units/ml penicillin, 100 μg/ml streptomycin and sodium bicarbonate. LHC-9 medium was supplemented with 5% FBS and 100 units/ml penicillin. These cells were cultured at 37° C. and 5% CO2 in a humidified incubator.
Please refer to FIG. 2. The H1975 cells were treated with 0˜40 μM of SP101 or Gefitinib for 24 hours. After treatment, the H1975 cells were re-cultured in fresh medium for 2 days. The cell viability was analyzed by MTT assays. The results were obtained from three independent experiments and the var represents the mean±S.E.M. ***p<0.001 indicates significant difference between Gefitinib and SP101 treated samples.

[3] = system: A549-ON cells; experiment: Annexin V/PI apoptosis flow cytometry in A549-ON cells; format: cell-based, human; conditions: 30 μM
Description: At the end of treatment, apoptosis was measured by Annexin V-PI staining using flow cytometry analysis. The population of Annexin V+/PI− cells represents cells undergoing early apoptosis (low right), whereas the fraction of Annexin V+/PI+ cell are those undergoing late apoptosis (upper right). The representative flow data were shown from one of three separate experiments with similar findings.
The bar represents the mean±S.E.M. ***p<0.001 indicates significant difference between untreated and SP101 or Gefitinib treated samples.
We compared the apoptosis levels of SP101 and Gefitinib in cancer stem-like A549-ON cells by Annexin V and PI staining. Please refer to FIG. 19. […] Please refer to FIG. 20. The average of total apoptosis follows SP101 and Gefitinib in the A549-ON cells around 69.29% and 7.59%, respectively.

[4] = molecular target: T2, phosphorylated EGFR (Tyr1068) (Homo sapiens, UniProt P00533); experiment: Western blot of phosphorylated EGFR and total EGFR in A549 cells; format: cell-based; conditions: 10~40 μM for 24 hours
T2 construct: endogenous in cells; host or cells: A549 (ATCC CCL-185)
Description: At the end of treatment, the total protein extracts were prepared for Western blot analyses using specific antibodies, including rabbit anti-p-EGFR (Tyr1068), rabbit anti-EGFR and mouse anti-actin. Representative immunoblotting data were shown from one of three separate experiments with similar findings. Actin was an internal control protein.
Please refer to FIG. 14. The expressions of phosphorylated EGFR and total EGFR proteins after treatment with SP101 (10˜40 μM for 24 hours) in the K-Ras mutation A549 cells were analyzed by Western blot. […] Please refer to FIG. 15. We further examined the apoptosis levels of SP101 in A549 cells by Annexin V and PI staining. The cells were trypsinized and then incubated with propidium iodide (5 μl) and Annexin V-FITC (5 μl) at room temperature for 5 min before flow cytometry.

[5] = system: PLC26 cells; experiment: MTT cell viability assay in PLC26 cells; format: cell-based, human; conditions: 0~40 μM for 24 hours, compared with Gefitinib
Description: (§2) After treatment, the cells were re-cultured in fresh medium for 2 days. The cell viability was analyzed by MTT assays. The results were obtained from three independent experiments and the bar represents the mean±S.E.M. ***p<0.001 indicates significant difference between gefitinib and SP101 treated samples.
as §1, with “DMEM and RPMI medium were supplemented with 10% fetal bovine serum (FBS), 100 units/ml penicillin, 100 μg/ml streptomycin and sodium bicarbonate. LHC-9 medium was supplemented with 5% FBS and 100 units/ml penicillin. These cells were cultured at 37° C. and 5% CO2 in a humidified incubator.” left out
We have further investigated the effect of SP101 in PLC26 lung cancer cells separated from the pleural effusion of a clinical lung cancer patient. To compare the cell viability of SP101 and Gefitinib in PLC26 cells, the cells were treated with 0˜40 μM SP101 or Gefitinib for 24 hours, and analyzed by MTT assays. […] The apoptosis levels of SP101 in PLC26 cells were analyzed by Annexin V and PI staining. […]

[6] = system: A549-ON cells; experiment: MTT cell viability assay in A549-ON cells; format: cell-based, human; conditions: 10~40 μM for 24 hours, concentration-dependent
Description: as §2, with “Gefitinib” for “gefitinib”
as §1, with “PLC26 cells were maintained in LHC-9 medium. DMEM and RPMI medium were supplemented with 10% fetal bovine serum (FBS), 100 units/ml penicillin, 100 μg/ml streptomycin and sodium bicarbonate. LHC-9 medium was supplemented with 5% FBS and 100 units/ml penicillin. These cells were cultured at 37° C. and 5% CO2 in a humidified incubator.” left out
Please refer to FIG. 12. […] To compare the cell viability of SP101 and Gefitinib in K-Ras mutation-drug resistant A549 and A549-ON cell lines, the cells were treated with 0˜40 μM SP101 or Gefitinib for 24 hours, and analyzed by MTT assays. […] To determine the effect of SP101 and Gefitinib on the cell viability in cancer stem-like A549-ON cells, the cells were treated with 10˜40 μM SP101 or Gefitinib for 24 hours, and analyzed by MTT assays.

SMILES: CCCCCCCCCCCCOC(=O)CCC(=O)N1CCN(CCCOc2cc3c(Nc4ccc(F)c(Cl)c4)ncnc3cc2OC)CC1 [SP101, dodecyl 4-(4-(3-(4-(3-chloro-4-fluorophenylamino)-7-methoxyquinazolin-6-yloxy)propyl)piperazin-1-yl)-4-oxobutanoate]
- phosphorylated EGFR (Tyr 1068) protein level [1]: significantly reduced
- total EGFR protein level [1]: did not inhibit
- cell viability inhibition [2]: significantly higher in the SP101 group than in the Gefitinib group
- late apoptosis cells, compared with Gefitinib [3]: induced more late apoptosis cells than Gefitinib
- levels of Annexin V+/PI− cells (early apoptosis) and Annexin V+/PI+ cells (late apoptosis) [3]: significantly increased
- average of total apoptosis ([3]; early and late apoptosis, flow cytometry): around 69.29%
- phosphorylated EGFR (Tyr1068) protein levels [4]: significantly reduced
- total EGFR protein levels [4]: did not alter
- reduction of cell viability [5]: more effective on the reduction of cell viability than Gefitinib
- cell viability [6]: significantly reduced

— patent US9980967B1, “Method for overcoming drug resistance of EGFR mutation and cancerous stemness of human non-small cell lung carcinoma” (NATIONAL CHIAO TUNG UNIVERSITY, priority 2017, dated 2018)
